According to paper PMC11328113, “Dissecting the functional behavior of the differentially phosphorylated prolyl isomerase, Pin1” (Protein Science : A Publication of the Protein Society, 2024):
Blank lines part the entries; values can stand above or below the molecule they belong to. Where a SMILES comes first, the peptide text is derived from it. Where no end group is shown, it is not given here. [ ]: non-standard residue; d: D form. The star is where a group is joined. FITC = O=C1OC2(c3ccc(O)cc3Oc3cc(O)ccc32)c2ccc(NC(=S)*)cc21; pS = N[C@@H](COP(=O)(O)O)C(=O)O; Ahx = NCCCCCC(=O)O

What was measured:
[1] = target: T1, Pin1 (Homo sapiens, UniProt Q13526); assay: Fluorescence polarization, FITC-Pintide binding to Pin1; settings: fluorescently labelled Pintide 10 nM; FP, room temperature, 5 mM HEPES pH 7.4, 30 mM NaCl, 0.1% Tween20, 1% DMSO; triplicates; read-out: apparent Kd (Pin1 titration to fluorescently labelled Pintide)
T1 construct: His6 (TEV-cleavable) (N, cleaved yes); host or cells: E. coli BL21 (DE3)
Description: FP experiments were conducted using a fluorescein (FITC)‐labeled “Pintide” [5‐FITC‐(Ahx)‐WFY(pS)PFLE‐CONH2] purchased from China Peptides. FP data were collected at room temperature in buffer containing 5 mM HEPES pH 7.4, 30 mM NaCl, 0.1% v/v Tween20, and 1% v/v DMSO using Corning black, round‐bottom, low‐binding 384‐well plates. For all experiments, a fixed concentration of 10 nM fluorescently labeled Pintide and 40 μM of Pin1 protein was used. All plates were incubated for 10 min and shaken for 10 s before polarization was measured using a CLARIOstar Plus microplate reader with an excitation wavelength of 482/16 nm and an emission wavelength of 530/40 nm; dichroic mirror 504; flashes: 200. All data were analyzed using GraphPad Prism 7, and sigmoidal curves were fitted using the following Equation: Y=Bottom+Top−Bottom/1+10^Logt1/2−X*HillSlope. where Y = mP value, X = time, and Top and bottom = plateaus in mP.
Figure S1. (a) Fluorescence polarisation data for Pin1 titration to fluorescently labelled Pintide (10 nM). The apparent Kd was 0.7 µM. […] (b) Fluorescence polarisation control data showing polarisation, mP values, for the fluorescently labelled Pintide alone (Only Pintide, black), PKA in the presence of Pintide without Pin1 at 1 min and 24 h time points, and Pin1 in the presence of Pintide without PKA at 1 min and 24 h time points. […]

[2] = target: T1, Pin1; assay: Chymotrypsin-coupled Pin1 PPIase assay (suc-AEPF-pNA); format: biochemical; settings: in the absence of PKA, 4°C, pH 7.8
Description: To perform the FP and enzymatic activity assays, Pin1 was phosphorylated by incubation of 40 μM Pin1 with 10,000 units of cAMP‐dependent protein kinase (PKA) (New England BioLabs) in kinase buffer (50 mM Tris‐HCl, 10 mM MgCl2, 1 mM DTT, and pH 7.5) supplemented with 2 mM adenosine triphosphate (ATP) (New England BioLabs) at 37°C. At 1 min, 1 h, 3 h, 8 h, 12 h, 18 h, 24 h, and 32 h, aliquots were taken, and PKA activity was stopped by addition of 20 mM EDTA, and the samples were kept at −80°C prior to analysis.
Pin1 (phosphorylated or non‐phosphorylated, 80 nM), in buffer containing 35 mM HEPES, pH 7.8, was incubated with 30 mg/mL ice‐cold chymotrypsin (diluted in 1 mM HCl) (Sigma‐Aldrich) and 2.5 mM of PPIase substrate (Suc‐AEPF‐pNA in 460 mM LiCl in trifluoroethanol) (#SAP‐3947‐PI, Vivitide) in a 1 mL cuvette. pNA release was measured at 4°C for 1 min on a Cary 300 UV–visible spectrophotometer using an absorption wavelength at 390 nm.
The data were collected in triplicate and analyzed using GraphPad Prism 7. The data were reported as the mean ± standard error of the mean.

[3] = system: cAMP-dependent protein kinase (PKA); assay: LC-MS/MS phosphosite occupancy of Pin1 upon incubation with PKA (Lys-C digestion); format: biochemical; settings: triplicate
Description: (§1) To phosphorylate Pin1 for the native MS analysis, Pin1 (10 μM) was incubated at 30°C with 2 mM ATP, 10 mM MgCl2 (BDH Laboratory supplies), and 10,000 units PKA in 100 mM ammonium acetate pH 6.8 for 1, 3, 8, and 24 h. The concentration of PKA and Pin1 was optimized in order to detect sequential phosphorylation within the time course. At each time‐point, aliquots were taken, the reaction quenched by addition of EDTA (final concentration 20 mM), and the sample buffer exchanged using 3 kDa Amicon Ultra 0.5 mL centrifugal concentrators into 100 mM ammonium acetate pH 6.8 prior to MS analysis. Phosphorylation assays at each time‐point were carried out in triplicates, and the error was reported as the standard deviation.
Phosphorylated Pin1 was digested with either trypsin (Promega) or the endoproteinase Lys‐C (Promega) at a 1:50 ratio of enzyme: protein. To localize the phosphorylation sites, trypsin digestion was performed. To quantify the phosphosite occupancy over the phosphorylation time‐course, differentially phosphorylated Pin1 was digested with Lys‐C. For both enzymatic reactions, Pin1 was digested in 100 mM ammonium bicarbonate pH 8.0 for 3 h at 37°C, and the reaction was quenched by the addition of formic acid (2% v/v final concentration). All peptides were separated using an UltiMate 3000 HPLC series, which was either coupled to a QExactive HF or Orbitrap Eclipse mass spectrometer (Thermo Fisher Scientific). […] To quantify the extent of phosphorylation on Pin1, MS/MS was performed on the QExactive HF mass spectrometer. […]
To quantify the abundance of phosphorylated peptides, the retention time of the eluted peptides was identified using Proteomic Discoverer v.2.5. Spectra were averaged across the peptides chromatographic peak, and the percentage of phosphorylated peptide was calculated as a percentage of the total abundance of unphosphorylated and phosphorylated peptide. Full details of the peptides used for quantitation are detailed in the Supporting Information (Table S4).

[4] = system: cAMP-dependent protein kinase (PKA); assay: Native MS of Pin1 phosphorylation by PKA; format: biochemical; settings: 30°C, pH 6.8, mean ± SD, triplicate
Description: as §1
(§2) All native MS was performed on a QExactive HF mass spectrometer (Thermo Fisher Scientific) equipped with a nanoelectrospray ionization source that used gold‐coated borosilicate glass capillaries, pulled in‐house. Positive ionization mode was used throughout, with the capillary voltage set to 1.2 kV. The source temperature was set at 250°C, in source dissociation at 0, S‐lens RF at 100. The Pin1 concentration was set to 2.5 μM and a mass range of 1500–4000 m/z was acquired. Mass spectra were acquired using a maximum ion injection time of 100 ms. The automatic gain control was set to 1 x 10^6 and the ions detected in the orbitrap with resolution set to 15,000. All data were analyzed using XCalibur (version 4.2). To quantify the abundance of unphosphorylated, phosphorylated Pin1 and Pin1‐Pintide complexes, the relative abundance of the peaks corresponding to the specific 9+, 8+, and 7+ Pin1 species of interest was summed and expressed as a percentage of all Pin1‐containing peaks detected.

[5] = system: cAMP-dependent protein kinase (PKA); assay: LC-MS/MS (EThcD) of additional Pin1 phosphosites after PKA incubation (trypsin digestion); format: biochemical; settings: 24 h with PKA, not consistently detected across timepoints
Description: Phosphorylated Pin1 was digested with either trypsin (Promega) or the endoproteinase Lys‐C (Promega) at a 1:50 ratio of enzyme: protein. To localize the phosphorylation sites, trypsin digestion was performed. To quantify the phosphosite occupancy over the phosphorylation time‐course, differentially phosphorylated Pin1 was digested with Lys‐C. For both enzymatic reactions, Pin1 was digested in 100 mM ammonium bicarbonate pH 8.0 for 3 h at 37°C, and the reaction was quenched by the addition of formic acid (2% v/v final concentration). All peptides were separated using an UltiMate 3000 HPLC series, which was either coupled to a QExactive HF or Orbitrap Eclipse mass spectrometer (Thermo Fisher Scientific). Peptides were desalted on a PepMap100 C18 nanoViper trap column (75 μM x 2 cm, […] particle size) (Thermo Fisher Scientific) and separated with a PepMap100 C18 nanoViper analytical column (75 μM x 15 cm, […] particle size) (Thermo Fisher Scientific) using mobile phase A (H2O and 0.1% formic acid) and mobile phase B (100% acetonitrile and 0.1% formic acid) and eluted using a gradient from […] to 44% B over 30 min. The column flow rate was set to 350 nL/min with the column temperature set at 40°C. To quantify the extent of phosphorylation on Pin1, MS/MS was performed on the QExactive HF mass spectrometer. […]
To prevent phospho‐loss resulting in misassignment of the phosphosite location (Boersema et al., [2009]), electron transfer dissociation with supplemental HCD (EThcD) was performed on the trypsin‐digested peptides to localize the phosphosites. […] ETD was performed using an automatically determined reagent time set based on precursor charge state. […] Fragment ions were detected in the Orbitrap using a resolution setting of 30,000. […]
All RAW files were processed and analyzed using Proteome Discoverer version 2.5. […] Additional phosphosites, Ser58, Ser65, and Ser67 (Table S4) were detected after 24 h of incubation with PKA, however, these were not consistently detected across all timepoints and, therefore, were excluded from phosphosite quantitation. […]

[6] = target: T1, Pin1; assay: Native MS of Pintide bound to differentially phosphorylated Pin1; format: binding; settings: for % Pintide bound: 2.5 μM : 25 μM Pin1 : Pintide, 100 mM ammonium acetate, mean ± SD, triplicate
Description: as §1
Unlabeled Pintide [AcHN‐WFY(pS)PFLE‐CONH2] was purchased from China Peptides and dissolved in 100 mM ammonium acetate pH 8 to a final concentration of 1 mg/mL and stored at −80°C until use. To determine the affinity of […] for differentially phosphorylated Pin1, Pintide was added to each Pin1 phosphorylation time‐point at a 2.5 μM: 25 μM Pin1 to Pintide ratio and the sample was directly infused into the mass spectrometer. Experiments were carried out in triplicates, and the error was reported as the standard deviation.
as §2

[7] = target: Pin1 phosphorylated at Ser71 (singly phosphorylated Pin1) (UniProt Q13526); assay: fluorescence polarisation; time course: Pin1 (40 uM) incubated with PKA and ATP at 37 C for 1 min to 32 h, stopped with 20 mM EDTA, then 10 nM FITC-Pintide; room temperature, 5 mM HEPES pH 7.4, 30 mM NaCl, 0.1% Tween20, 1% DMSO; control without PKA
Sequence of Pin1 phosphorylated at Ser71 (singly phosphorylated Pin1) (Q13526 whole entry): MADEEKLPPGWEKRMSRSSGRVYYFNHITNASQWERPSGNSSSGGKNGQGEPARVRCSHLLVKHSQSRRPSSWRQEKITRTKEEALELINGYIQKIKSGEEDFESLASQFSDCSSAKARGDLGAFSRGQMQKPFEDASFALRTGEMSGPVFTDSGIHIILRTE

T1 sequence (Q13526 whole entry): as above

Kd [1]: 700 nM
Molecule: CC(C)C[C@H](NC(=O)[C@H](Cc1ccccc1)NC(=O)[C@@H]1CCCN1C(=O)[C@H](COP(=O)(O)O)NC(=O)[C@H](Cc1ccc(O)cc1)NC(=O)[C@H](Cc1ccccc1)NC(=O)[C@H](Cc1c[nH]c2ccccc12)NC(=O)CCCCCNC(=S)Nc1ccc2c(c1)C(=O)OC21c2ccc(O)cc2Oc2cc(O)ccc21)C(=O)N[C@@H](CCC(=O)O)C(N)=O [FITC‐Pintide, 5‐FITC‐(Ahx)‐WFY(pS)PFLE‐CONH2] ({FITC-Ahx}-WFY[pS]PFLE-NH2)

Molecule: Pin1: peptidyl‐prolyl cis‐trans isomerase comprising N-terminal WW domain and C-terminal PPIase domain
absorption at 390 nm upon addition of Pin1 to the substrate (catalytic activity) [2]: increased
phosphorylation occupancy of Ser16 ([3]; 1 h incubation with PKA): 4%
phosphorylation occupancy of Ser71 ([3]; 1 h incubation with PKA): ~ 90%
phosphorylation occupancy of Ser16 ([3]; 24 h incubation with PKA): ~ 80%
relative abundance of doubly phosphorylated Pin1 ([4]; 3 h incubation with PKA): ~ 65 ± 23%
relative abundance of doubly phosphorylated Pin1 ([4]; 8 h incubation with PKA): 85% ± 11
relative abundance of Pin1 with two phosphorylation sites ([4]; 24 h incubation with PKA): 95% ± 0.01
Phosphorylation Stoichiometry (24h), Ser58 [5]: 0.19
Phosphorylation Stoichiometry (24h), Ser65 [5]: 0.05
Phosphorylation Stoichiometry (24h), Ser67 [5]: 0.05

% Pintide bound ([6]; 0 phosphosites on Pin1): 39 ± 5%
% Pintide bound ([6]; 1 phosphosite on Pin1, * p <0.05 (ANOVA, Tukey HSD)): 26 ± 6* %
% Pintide bound ([6]; 2 phosphosites on Pin1, ** p <0.01 (ANOVA, Tukey HSD)): 4 ± 1** %
Pin1 binding to Pintide ([6]; Pin1 phosphorylated at Ser71, versus unphosphorylated, native MS): small, yet significant, difference
Molecule: AcHN‐WFY(pS)PFLE‐CONH2 [Pintide]

% of binding inhibited after 1 h with PKA [7]: 16%
Molecule: WFY[pS]PFLE-NH2 (not fully specified (N-terminus); printed as 5‐FITC‐(Ahx)‐WFY(pS)PFLE‐CONH_2_) [FITC-Pintide [5-FITC-(Ahx)-WFY(pS)PFLE-CONH2]]
